For data set [1], the system named is P. falciparum male gametocytes. Description: P. falciparum Dual Gamete Formation Assay (PfDGFA), male readout (exflagellation). It counts as cell-based, Plasmodium falciparum NF54. Conditions: for Average inhibition male (%) / % inhibition male (individual replicates) R1 / % inhibition male (individual replicates) R3 / % inhibition male (individual replicates) R4 / inhibition at 2 µM: 24h preincubation with gametocytes; for % inhibition male (individual replicates) R3: replicate R3; for Selectivity Ratio M: HepG2 Tox50 versus male IC50; for IC50: PfDGFA, 24 h incubation with gametocytes before induction, exflagellation readout, read-out: Male IC50. The method in brief:
(§1)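 NF54 mature gametocytes (d14), cpd 24 h 37°C hypoxic gas; trigger: xanthurenic acid ookinete medium + Cy3 anti-Pfs25, 4°C 4 min → 28°C 4 min. Male: exflagellation centres, brightfield x6. Female: Pfs25+ gametes, fluorescence, +24 h 28°C dark.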

Another data set has as its system HepG2 cells. Kind of data set: HepG2 cytotoxicity counter-screen. Conditions: cytotoxic activity against HepG2 cells.
Data set [2] has as its system P. falciparum female gametocytes. Kind of data set: P. falciparum Dual Gamete Formation Assay (PfDGFA), female readout (Pfs25-positive female gametes). It counts as cell-based, Plasmodium falciparum NF54. Conditions: for Average inhibition female (%) / % inhibition female (individual replicates) R1 / % inhibition female (individual replicates) R3 / % inhibition female (individual replicates) R4 / inhibition at 2 µM: 24h preincubation with gametocytes; for Selectivity ratio F: HepG2 Tox50 versus female IC50; for IC50: PfDGFA, 24 h incubation with gametocytes before induction, female gamete readout, read-out: Female IC50. Put shortly: as §1

The mark [3] stands for this setting: PfDGFA at 2µM, average of replicates.

Like-named read-outs stand apart in the source and are kept apart here.

As for `CS(=O)(=O)O.FC(F)(F)COc1ccc(CNCCCCCCNCc2ccc(OCC(F)(F)F)c3ccccc23)c2ccccc12` [TCMDC-137853], in data set [1] (2µM, average of replicates), the “Average inhibition male (%)” value stood at 98.2%. In data set [1] (2µM, replicate R1), the “% inhibition male (individual replicates) R1” value came out at 97.9%. Besides, the “% inhibition male (individual replicates) R3” value in data set [1] (2µM) was determined as 96.8%. In addition, the “% inhibition male (individual replicates) R4” value in data set [1] (2µM, replicate R4) is on record as 101.6%. In data set [1], the “Selectivity Ratio M” value stood at 4.06 and the IC50 worked out at 310 nM. Further, the Tox50 in the data set with HepG2 cells was 1.26 µM. Moreover, the “Average inhibition female (%)” value in data set [2] (2µM, average of replicates) was determined as 50.4%. The “% inhibition female (individual replicates) R1” value in data set [2] (2µM, replicate R1) is recorded as 38.4%. In data set [2] (2µM, replicate R3), the “% inhibition female (individual replicates) R3” value was 35.3%. The “% inhibition female (individual replicates) R4” value in data set [2] (2µM, replicate R4) worked out at 42.3%. Also, in data set [2], the “Selectivity ratio F” value worked out at 2.44 and the IC50 turned out to be 520 nM.

On to `COc1c(CCNCCCCNCCc2cc(Cl)c3ccccc3c2OC)cc(Cl)c2ccccc12.CS(=O)(=O)O` [TCMDC-137869], for which, in data set [1] (2µM, average of replicates), the “Average inhibition male (%)” value is given as 96.4%. Further, the “% inhibition male (individual replicates) R1” value in data set [1] (2µM, replicate R1) is listed as 99.7%. Further, in data set [1] (2µM), the “% inhibition male (individual replicates) R3” value amounted to 90.8%. The “% inhibition male (individual replicates) R4” value in data set [1] (2µM, replicate R4) stood at 101.9%. Moreover, in data set [1], the “Selectivity Ratio M” value turned out to be 3.25 and the IC50 was 920 nM. This compound also yielded a Tox50 in the data set on HepG2 cells of 2.99 µM. Besides, the “Average inhibition female (%)” value in data set [2] (2µM, average of replicates) came out at 93.4%. Also, the “% inhibition female (individual replicates) R1” value in data set [2] (2µM, replicate R1) was 93.5%. In addition, the “% inhibition female (individual replicates) R3” value in data set [2] (2µM, replicate R3) is 100.2%. Besides, the “% inhibition female (individual replicates) R4” value in data set [2] (2µM, replicate R4) worked out at 88.2%. Besides, in data set [2], the “Selectivity ratio F” value is listed as 2.39 and the half-inhibitory concentration (IC50) turned out to be 1250 nM.

With `Oc1cccc(CNCCCN(Cc2ccccc2)c2ccccc2)c1` [TCMDC-137875], the “Selectivity Ratio M” value in data set [1] is recorded as 13. In addition, the inhibition at 2 µM stood at 97.7% in data set [1] (Plasmodium falciparum, 2µM, average of replicates, read-out: Average inhibition male (%)); 96.8% in data set [1] (Plasmodium falciparum, 2µM, replicate R1, read-out: % inhibition male (individual replicates) R1); 93.7% in data set [1] (Plasmodium falciparum, 2µM, replicate R2, read-out: % inhibition male (individual replicates) R2); 103% in data set [1] (Plasmodium falciparum, 2µM, replicate R4, read-out: % inhibition male (individual replicates) R4); 33.5% in data set [2] (Plasmodium falciparum, 2µM, average of replicates, read-out: Average inhibition female (%)); 43.5% in data set [2] (Plasmodium falciparum, 2µM, replicate R1, read-out: % inhibition female (individual replicates) R1). Further, the inhibition at 2 µM in data set [2] (Plasmodium falciparum, 2µM, replicate R2, read-out: % inhibition female (individual replicates) R2) was found to be 32%; in data set [2] (Plasmodium falciparum, 2µM, replicate R3, read-out: % inhibition female (individual replicates) R3), 28.3%; in data set [2] (Plasmodium falciparum, 2µM, replicate R4, read-out: % inhibition female (individual replicates) R4), 30.2%. Besides, the results for the concentration for half-maximal inhibition (IC50) in data set [1] (Plasmodium falciparum) and in data set [2] (Plasmodium falciparum) were 1060 nM and 7740 nM, respectively. The compound also yielded a Tox50 with HepG2 cells of 13.84 µM. In addition, in data set [2], the “Selectivity ratio F” value is reported as 1.79.

Regarding `CC(=NNC(=S)NCCc1ccccn1)c1ccccn1` [TCMDC-137895], the “Average inhibition male (%)” value in data set [1] (2µM, average of replicates) was 93.4%. Further, the “% inhibition male (individual replicates) R1” value in data set [1] (2µM, replicate R1) is 86.5%. Moreover, in data set [1] (2µM), the “% inhibition male (individual replicates) R3” value was 96.2%. Further, in data set [1] (2µM, replicate R4), the “% inhibition male (individual replicates) R4” value amounted to 94.6%. For the same compound, in data set [1], the “Selectivity Ratio M” value was 2.92 and the concentration for half-maximal inhibition (IC50) turned out to be 390 nM. In addition, the Tox50 with HepG2 cells is listed as 1.15 µM. The “Average inhibition female (%)” value in data set [2] (2µM, average of replicates) amounted to 79.8%. Also, in data set [2] (2µM, replicate R1), the “% inhibition female (individual replicates) R1” value was determined as 58.7%. In data set [2] (2µM, replicate R3), the “% inhibition female (individual replicates) R3” value was determined as 98.6%. Moreover, in data set [2] (2µM, replicate R4), the “% inhibition female (individual replicates) R4” value came to 74.6%. Also, in data set [2], the “Selectivity ratio F” value turned out to be 2.26 and the concentration for half-maximal inhibition (IC50) worked out at 510 nM.

`CN(CCCNCc1cccc2ccccc12)CCCNCc1cccc2ccccc12.Cl` [TCMDC-137905]: in data set [1], the “Selectivity Ratio M” value is recorded as 6.46 and the IC50 is 920 nM. In data set [1] (setting [3]), the “Average inhibition male (%)” value was 87.5%. Besides, the “% inhibition male (individual replicates) R1” value in data set [1] (PfDGFA at 2µM, replicate R1) is listed as 87.4%. In data set [1] (PfDGFA at 2µM), the “% inhibition male (individual replicates) R3” value is 74.8%. For the same compound, the “% inhibition male (individual replicates) R4” value in data set [1] (PfDGFA at 2µM, replicate R4) is reported as 93.6%. The same compound displayed a HitlevelM in data set [1] (number of replicates with >50% inhibition in the male readout, 2µM) of 4. Besides, the Tox50 with HepG2 cells came out at 5.94 µM. For the same compound, in data set [2], the “Selectivity ratio F” value was determined as 4.08 and the concentration for half-maximal inhibition (IC50) was 1460 nM. Further, the “Average inhibition female (%)” value in data set [2] (setting [3]) is 42.5%. Moreover, in data set [2] (PfDGFA at 2µM, replicate R1), the “% inhibition female (individual replicates) R1” value is reported as 35.1%. Further, the “% inhibition female (individual replicates) R3” value in data set [2] (PfDGFA at 2µM, replicate R3) was determined as 30.8%. Moreover, the “% inhibition female (individual replicates) R4” value in data set [2] (PfDGFA at 2µM, replicate R4) came out at 35.6%. The HitlevelF in data set [2] (number of replicates with >50% inhibition in the female readout, 2µM) is 1.
